Test results reported in the supplement of paper PMC11061612.

What was measured:
Carboplatin = compound: C1CC(C1)(C(=O)[O-])C(=O)[O-].N.N.[Pt+2] [Carboplatin]; conditions: max 10 µM
Procedure, shortened: (§1)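 Cancer cell lines were seeded in 1536-well plates in 7.5 μl DMEM/F12 or RPMI with 10% FBS, held 24 hours at 37°C and 5% CO2, then dosed for 72 hours (final DMSO typically 0.2%). Viability was read by CellTiter-Glo 2.0 luminescence and scaled between blank-well and DMSO-well means. The single-agent IC50 comes from dose responses fitted to a two-parameter logistic curve with a non-linear mixed effects model.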

AZD5363 = compound: C1CN(CCC1(C(=O)N[C@@H](CCO)C2=CC=C(C=C2)Cl)N)C3=NC=NC4=C3C=CN4 [AZD5363]; conditions: max 10 µM
Procedure, shortened: as §1

AZD1775 = compound: C=CCn1c(=O)c2cnc(Nc3ccc(N4CCN(C)CC4)cc3)nc2n1-c1cccc(C(C)(C)O)n1 [AZD1775]; conditions: max 3 µM
Procedure, shortened: as §1

Trametinib = compound: CC(=O)Nc1cccc(-n2c(=O)n(C3CC3)c(=O)c3c(Nc4ccc(I)cc4F)n(C)c(=O)c(C)c32)c1 [Trametinib]; conditions: max 1 µM
Procedure, shortened: as §1

Paclitaxel = compound: CC(=O)O[C@H]1C(=O)[C@@]2(C)[C@H]([C@H](OC(=O)c3ccccc3)[C@]3(O)C[C@H](OC(=O)[C@H](O)[C@@H](NC(=O)c4ccccc4)c4ccccc4)C(C)=C1C3(C)C)[C@]1(OC(C)=O)CO[C@@H]1C[C@@H]2O [Paclitaxel]; conditions: max 3 µM
Procedure, shortened: as §1

Palbociclib = compound: CC(=O)c1c(C)c2cnc(Nc3ccc(N4CCNCC4)cn3)nc2n(C2CCCC2)c1=O [Palbociclib]; conditions: max 10 µM
Procedure, shortened: as §1

AZD1390 = compound: CC(C)n1c(=O)n(C)c2cnc3cc(F)c(-c4ccc(OCCCN5CCCCC5)nc4)cc3c21 [AZD1390]; conditions: max 0.3 µM
Procedure, shortened: as §1

Venetoclax = compound: CC1(C)CCC(CN2CCN(c3ccc(C(=O)NS(=O)(=O)c4ccc(NCC5CCOCC5)c([N+](=O)[O-])c4)c(Oc4cnc5[nH]ccc5c4)c3)CC2)=C(c2ccc(Cl)cc2)C1 [Venetoclax]; conditions: max 1 µM
Procedure, shortened: as §1

Dasatinib = compound: CC1=C(C(=CC=C1)Cl)NC(=O)C2=CN=C(S2)NC3=CC(=NC(=N3)C)N4CCN(CC4)CCO [Dasatinib]; conditions: max 2 µM
Procedure, shortened: as §1

SG3199 = compound: CC1=CN2[C@@H](C1)C=NC3=CC(=C(C=C3C2=O)OC)OCCCCCOC4=C(C=C5C(=C4)N=C[C@@H]6CC(=CN6C5=O)C)OC [SG3199]; conditions: max 0.001 µM
Procedure, shortened: as §1

AZD2811 = compound: CCN(CCO)CCCOc1ccc2c(Nc3cc(CC(=O)Nc4cccc(F)c4)[nH]n3)ncnc2c1 [AZD2811]; conditions: max 1 µM
Procedure, shortened: as §1

SN-38 = compound: CCc1c2c(nc3ccc(O)cc13)-c1cc3c(c(=O)n1C2)COC(=O)[C@]3(O)CC [SN-38]; conditions: max 0.3 µM
Procedure, shortened: as §1

AZD0156 = compound: CN(C)CCCOc1ccc(-c2ccc3ncc4c(c3c2)n(C2CCOCC2)c(=O)n4C)cn1 [AZD0156]; conditions: max 3 µM
Procedure, shortened: as §1

AZD4320 = compound: CN(CC[C@H](CSC1=CC=CC=C1)NC2=C(C=C(C=C2)S(=O)(=O)NC(=O)C3=CC=C(C=C3)N4CCC(CC4)[C@H](C5=CC=CC=C5C6=CC=C(C=C6)Cl)O)S(=O)(=O)C(F)(F)F)CCO [AZD4320]; conditions: max 1 µM
Procedure, shortened: as §1

Alisertib = compound: COc1cc(Nc2ncc3c(n2)-c2ccc(Cl)cc2C(c2c(F)cccc2OC)=NC3)ccc1C(=O)O [Alisertib]; conditions: max 10 µM
Procedure, shortened: as §1

Etoposide = compound: COc1cc([C@@H]2c3cc4c(cc3[C@@H](O[C@@H]3O[C@@H]5CO[C@@H](C)O[C@H]5[C@H](O)[C@H]3O)[C@H]3COC(=O)[C@H]23)OCO4)cc(OC)c1O [Etoposide]; conditions: max 10 µM
Procedure, shortened: as §1

Gefitinib = compound: COc1cc2ncnc(Nc3ccc(F)c(Cl)c3)c2cc1OCCCN1CCOCC1 [Gefitinib]; conditions: max 10 µM
Procedure, shortened: as §1

Prexasertib = compound: COc1cccc(OCCCN)c1-c1cc(Nc2cnc(C#N)cn2)n[nH]1 [Prexasertib]; conditions: max 1 µM
Procedure, shortened: as §1

Doxorubicin = compound: COc1cccc2c1C(=O)c1c(O)c3c(c(O)c1C2=O)C[C@@](O)(C(=O)CO)C[C@@H]3O[C@H]1C[C@H](N)[C@H](O)[C@H](C)O1 [Doxorubicin]; conditions: max 1 µM
Procedure, shortened: as §1

AZD5153 = compound: COc1nnc2ccc(N3CCC(c4ccc(OCCN5CCN(C)C(=O)[C@H]5C)cc4)CC3)nn12 [AZD5153]; conditions: max 1 µM
Procedure, shortened: as §1

Lapatinib = compound: CS(=O)(=O)CCNCc1ccc(-c2ccc3ncnc(Nc4ccc(OCc5cccc(F)c5)c(Cl)c4)c3c2)o1 [Lapatinib]; conditions: max 10 µM
Procedure, shortened: as §1

AZD8186 = compound: C[C@@H](Nc1cc(F)cc(F)c1)c1cc(C(=O)N(C)C)cc2c(=O)cc(N3CCOCC3)oc12 [AZD8186]; conditions: max 10 µM
Procedure, shortened: as §1

Crizotinib = compound: C[C@@H](Oc1cc(-c2cnn(C3CCNCC3)c2)cnc1N)c1c(Cl)ccc(F)c1Cl [Crizotinib]; conditions: max 10 µM
Procedure, shortened: as §1

Savolitinib = compound: C[C@@H](c1ccc2nccn2c1)n1nnc2ncc(-c3cnn(C)c3)nc21 [Savolitinib]; conditions: max 1 µM
Procedure, shortened: as §1

AZD6738 = compound: C[C@@H]1COCCN1C2=NC(=NC(=C2)C3(CC3)[S@](=N)(=O)C)C4=C5C=CNC5=NC=C4 [AZD6738]; conditions: max 10 µM
Procedure, shortened: as §1

AZD5991 = compound: Cc1c2c(nn1C)CSCc1cc(n(C)n1)CSc1cc(c3ccccc3c1)OCCCc1c(C(=O)O)n(C)c3c-2c(Cl)ccc13 [AZD5991]; conditions: max 1 µM
Procedure, shortened: as §1

AZD7648 = compound: Cc1cc2ncnn2cc1Nc1ncc2c(n1)n(C1CCOCC1)c(=O)n2C [AZD7648]; conditions: max 10 µM
Procedure, shortened: as §1

Taselisib = compound: Cc1nc(-c2cn3c(n2)-c2ccc(-c4cnn(C(C)(C)C(N)=O)c4)cc2OCC3)n(C(C)C)n1 [Taselisib]; conditions: max 10 µM
Procedure, shortened: as §1

Selumetinib = compound: Cn1cnc2c(F)c(Nc3ccc(Br)cc3Cl)c(C(=O)NOCCO)cc21 [Selumetinib]; conditions: max 10 µM
Procedure, shortened: as §1

SRA737 = compound: N#Cc1cnc(Nc2cc(NC[C@H]3CNCCO3)c(C(F)(F)F)cn2)cn1 [SRA737]; conditions: max 10 µM
Procedure, shortened: as §1

MK-2206 = compound: NC1(c2ccc(-c3nc4ccn5c(=O)[nH]nc5c4cc3-c3ccccc3)cc2)CCC1 [MK-2206]; conditions: max 10 µM
Procedure, shortened: as §1

Gemcitabine = compound: Nc1ccn([C@@H]2O[C@H](CO)[C@@H](O)C2(F)F)c(=O)n1 [Gemcitabine]; conditions: max 0.3 µM
Procedure, shortened: as §1

[1] = compound: O=C(Nc1ccc2[nH]nc(-c3ccncc3)c2c1)[C@@H]1CCN(CC(=O)N2CCN(c3ccc(-c4ncccn4)cc3)CC2)C1; conditions: max 5 µM
Procedure, shortened: as §1

Olaparib = compound: O=C(c1cc(Cc2n[nH]c(=O)c3ccccc23)ccc1F)N1CCN(C(=O)C2CC2)CC1 [Olaparib]; conditions: max 10 µM
Procedure, shortened: as §1

5-Fluorouracil = compound: O=c1[nH]cc(F)c(=O)[nH]1 [5-Fluorouracil]; conditions: max 20 µM
Procedure, shortened: as §1

Row | Cell Line | IC50, cell viability 72 h (Carboplatin) | IC50, cell viability 72 h (AZD5363) | IC50, cell viability 72 h (AZD1775) | IC50, cell viability 72 h (Trametinib) | IC50, cell viability 72 h (Paclitaxel) | IC50, cell viability 72 h (Palbociclib) | IC50, cell viability 72 h (AZD1390) | IC50, cell viability 72 h (Venetoclax) | IC50, cell viability 72 h (Dasatinib) | IC50, cell viability 72 h (SG3199) | IC50, cell viability 72 h (AZD2811) | IC50, cell viability 72 h (SN-38) | IC50, cell viability 72 h (AZD0156) | IC50, cell viability 72 h (AZD4320) | IC50, cell viability 72 h (Alisertib) | IC50, cell viability 72 h (Etoposide) | IC50, cell viability 72 h (Gefitinib) | IC50, cell viability 72 h (Prexasertib) | IC50, cell viability 72 h (Doxorubicin) | IC50, cell viability 72 h (AZD5153) | IC50, cell viability 72 h (Lapatinib) | IC50, cell viability 72 h (AZD8186) | IC50, cell viability 72 h (Crizotinib) | IC50, cell viability 72 h (Savolitinib) | IC50, cell viability 72 h (AZD6738) | IC50, cell viability 72 h (AZD5991) | IC50, cell viability 72 h (AZD7648) | IC50, cell viability 72 h (Taselisib) | IC50, cell viability 72 h (Selumetinib) | IC50, cell viability 72 h (SRA737) | IC50, cell viability 72 h (MK-2206) | IC50, cell viability 72 h (Gemcitabine) | IC50, cell viability 72 h [1] | IC50, cell viability 72 h (Olaparib) | IC50, cell viability 72 h (5-Fluorouracil)
1 | LOUCY (T-Lymphoblastic Leukemia) | > 10 µM | 2.45 µM | 0.257 µM | > 1 µM | 0.0135 µM | > 10 µM | > 0.3 µM | 0.0317 µM | > 2 µM | > 0.001 µM | 0.00815 µM | 0.172 µM | > 3 µM | 0.00375 µM | 0.597 µM | 5 µM | > 10 µM | 0.00697 µM | > 1 µM | 0.385 µM | > 10 µM | > 10 µM | 4 µM | > 1 µM | 1.31 µM | > 1 µM | 7.43 µM | 3.53 µM | > 10 µM | 2.72 µM | 1.23 µM | > 0.3 µM | > 5 µM | > 10 µM | > 20 µM
2 | NCI-H810 (Non-Small Cell Lung Carcinoma) | > 10 µM | > 10 µM | 0.437 µM | > 1 µM | 0.282 µM | > 10 µM | > 0.3 µM | > 1 µM | > 2 µM | > 0.001 µM | 0.33 µM | 0.202 µM | > 3 µM | > 1 µM | 1.38 µM | > 10 µM | > 10 µM | 0.0528 µM | 0.88 µM | 0.442 µM | > 10 µM | > 10 µM | > 10 µM | > 1 µM | > 10 µM | > 1 µM | > 10 µM | > 10 µM | > 10 µM | > 10 µM | > 10 µM | > 0.3 µM | > 5 µM | > 10 µM | > 20 µM
3 | NCI-H1755 (Lung Adenocarcinoma) | > 10 µM | > 10 µM | 0.363 µM | 0.444 µM | 0.0582 µM | 9 µM | > 0.3 µM | > 1 µM | 0.211 µM | > 0.001 µM | > 1 µM | > 0.3 µM | > 3 µM | > 1 µM | 3.91 µM | > 10 µM | > 10 µM | 0.0108 µM | > 1 µM | > 1 µM | > 10 µM | > 10 µM | 3.97 µM | > 1 µM | 2.08 µM | > 1 µM | > 10 µM | 2.41 µM | > 10 µM | 2.3 µM | > 10 µM | > 0.3 µM | 1.95 µM | > 10 µM | > 20 µM
4 | NKM-1 (Acute Myeloid Leukemia) | > 10 µM | 8.12 µM | 0.455 µM | 0.0833 µM | 0.00366 µM | 1.25 µM | > 0.3 µM | 0.102 µM | 0.147 µM | > 0.001 µM | 0.502 µM | 0.00201 µM | > 3 µM | 0.00773 µM | 0.177 µM | 0.496 µM | > 10 µM | 0.015 µM | 0.0241 µM | 0.0594 µM | > 10 µM | 1.27 µM | 2.03 µM | > 1 µM | 1.86 µM | 0.0493 µM | > 10 µM | 0.201 µM | 2.7 µM | 2.37 µM | 0.855 µM | 0.00513 µM | 2 µM | 4.42 µM | 3.19 µM
5 | OV-90 (Ovarian Carcinoma) | > 10 µM | > 10 µM | > 3 µM | 0.0837 µM | > 3 µM | > 10 µM | > 0.3 µM | > 1 µM | > 2 µM | > 0.001 µM | > 1 µM | 0.265 µM | > 3 µM | > 1 µM | > 10 µM | > 10 µM | > 10 µM | 0.523 µM | > 1 µM | > 1 µM | > 10 µM | > 10 µM | > 10 µM | > 1 µM | > 10 µM | > 1 µM | > 10 µM | > 10 µM | 7.81 µM | > 10 µM | > 10 µM | > 0.3 µM | 1.88 µM | > 10 µM | > 20 µM
